Experimental findings from patent US20230303495A9, “PYRIDINE OXYNITRIDE, PREPARATION METHOD THEREFOR AND USE THEREOF” (Orion Corporation, priority 2019, published 2023) are described below.

Usually AUC(0-inf) stands for total exposure, with the tail of the curve extrapolated. The term half-life denotes how long it takes for the measured level to halve. Low values mean fast loss, high ones slow loss. Broadly, the Cmax is the highest concentration seen after dosing. What is called bioavailability is dose-corrected exposure relative to a reference, in per cent. The low end stands for poor availability, the high end for good availability. As usually defined, the IC50 is the concentration needed to halve the response being measured.

Data set [1] in a line: In vivo pharmacokinetics of rat, single intravenous injection or oral administration by gavage. Also noted: species or system Male Sprague Dawley rats. Conditions: male, Sprague-Dawley, plasma; for Vd: read-out: VZ; for bioavailability: intragastric (gavage) 10 mg/kg vs intravenous 1 mg/kg. As for the experimental part:
In this experimental embodiment, the in vivo pharmacokinetics of rat was evaluated by a single intravenous injection or oral administration by gavage.
Experimental methods and conditions: Male Sprague Dawley rats, all animals were fasted overnight, and the test compound was given 1 mg/Kg (intravenous injection, solvent […]) and 10 mg/Kg (administrated by gavage) respectively, 5, 15, 30 min, 1, 2, 4, 6, 8 and 24 hr after administration, blood was collected through the submandibular vein, about 0.20 mL of each sample was collected, heparin sodium was used for anticoagulation, the samples were placed on ice after the collection, then centrifuged within 1 hour to separate the plasma for testing. The blood drug concentration in plasma was detected by liquid-phase tandem mass spectrometry (LC/MS/MS), and the pharmacokinetic parameters were calculated by the measured concentration.

Another data set concerns the target T1, NaV1.8 (Homo sapiens, UniProt Q9Y5Y9).
T1 construct: expressed in transfected cells
Briefly: Whole-cell patch clamp blocking activity against NaV1.8 channel current. Format: cell-based. Particulars: for IC50: CHO cell line stably expressing Nav1.8 (SCN10A: NM_006514), patch clamp; for Blocking rate (%) @100 nM: against NaV1.8 at 100 nM, CHO cell line stably expressing Nav1.8, patch clamp. The protocol:
1. Test method: patch clamp technique was used to detect the influence of compounds on voltage-gated sodium channel (NaV) 1.1-1.8 subtype current
1) The specific information of the CHO cell line stably expressing the Nav1.8 channel was as follows: SCN10A: NM_006514
2) Cells were cultured in HAM'S/F-12 medium containing 10% fetal bovine serum and 10 μg/mL Blasticidin, 200 μg/mL Hygromycin B and 100 μg/mL Zeocin, culture temperature was 37° C. and the concentration of CO2 was 5%.
5) Patch clamp detection, before the experiment, the cells were separated with 0.25%—trypsin EDTA, inoculated into a 24 well plate with a density of 8*10^3 cells per well (final volume: 500 μL), tetracycline was added thereto, and experimental test was performed on the next day.
1) Extracellular fluid: 140 mM NaCl, 3.5 mM KCl, 2 mM CaCl2, 10 mM HEPES, 1.25 mM NaH2PO4, 1 mM MgCl2, 10 mM Glucose, pH=7.4 (NaOH).
2) Intracellular fluid: 50 mM CsCl, 10 mM NaCl, 10 mM HEPES, 20 mM EGTA, 60 mM CsF, pH=7.2 (CsOH).
The voltage stimulation scheme of whole-cell patch clamp recording of Nav channel current was as follows: first the membrane potential of the cell was clamped at −130 mV, and then the voltage was stepped to −40 mV or −20 mV at 10 mv step intervals for 8 s. The clamping voltage was maintained at −120 mV, and data was collected repeatedly every 20 seconds. The peak amplitude of its inward current was measured to determine its half-inactivation voltage.
The cell clamping potential was set at −120 mV. The resting and half-inactivation inhibition of sodium current was measured using double pulse mode. The double pulse mode was completed by two 0 mV depolarization test pulses (TP1 and TP2) lasting 50 ms. The conditional voltage between the two depolarization pulses was set near the half-inactivation voltage (lasting 8 s). […] The data acquisition was repeated at an interval of 20 s and the current peak was measured at the two test pulses.
When the current of the Nav channel recorded by the whole cell was stable, the drug was administered, after each drug concentration was applied for 5 minutes (or the current was stable), the next concentration would be tested, and multiple concentrations would be tested for each test compound. The cover glass covered with cells was placed in the recording bath of an inverted microscope, the test compound and the external liquid without compound flowed through the recording chambers in turns from low concentration to high concentration by gravity perfusion, so as to act on the cells, in the recording, the liquid exchange was carried out by vacuum pump. The current detected in each cell in the compound-free external fluid served as its own control group. Multiple cells were detected independently and repeatedly. All electrophysiological experiments were performed at room temperature.
First, the current after the action of each drug concentration and the blank control current were normalized, and then the blocking rate corresponding to each drug concentration was calculated. The mean and standard error were calculated for each concentration, and all the above values were calculated by Microsoft Excel 2013. In addition, the half-inhibitory concentration of each compound was calculated by IGOR software with the following equation: retardation rate=1/[1+(IC50/c)^h].
The dose-dependent effect was nonlinearly fitted with the above equation, wherein, c refers to the drug concentration, IC50 was the half inhibitory concentration, and h refers to the Hill coefficient. The curve fitting and the calculation of IC50 were completed by IGOR software (software version: 6.0.1.0).
(The patch-clamp technique gives a direct electrical read-out from membranes.)

The mark [2] stands for this setting: intravenous administration 1 mg/kg.
The mark [3] stands for this setting: po, intragastric (gavage) 10 mg/kg.

T1 sequence (Q9Y5Y9 whole entry): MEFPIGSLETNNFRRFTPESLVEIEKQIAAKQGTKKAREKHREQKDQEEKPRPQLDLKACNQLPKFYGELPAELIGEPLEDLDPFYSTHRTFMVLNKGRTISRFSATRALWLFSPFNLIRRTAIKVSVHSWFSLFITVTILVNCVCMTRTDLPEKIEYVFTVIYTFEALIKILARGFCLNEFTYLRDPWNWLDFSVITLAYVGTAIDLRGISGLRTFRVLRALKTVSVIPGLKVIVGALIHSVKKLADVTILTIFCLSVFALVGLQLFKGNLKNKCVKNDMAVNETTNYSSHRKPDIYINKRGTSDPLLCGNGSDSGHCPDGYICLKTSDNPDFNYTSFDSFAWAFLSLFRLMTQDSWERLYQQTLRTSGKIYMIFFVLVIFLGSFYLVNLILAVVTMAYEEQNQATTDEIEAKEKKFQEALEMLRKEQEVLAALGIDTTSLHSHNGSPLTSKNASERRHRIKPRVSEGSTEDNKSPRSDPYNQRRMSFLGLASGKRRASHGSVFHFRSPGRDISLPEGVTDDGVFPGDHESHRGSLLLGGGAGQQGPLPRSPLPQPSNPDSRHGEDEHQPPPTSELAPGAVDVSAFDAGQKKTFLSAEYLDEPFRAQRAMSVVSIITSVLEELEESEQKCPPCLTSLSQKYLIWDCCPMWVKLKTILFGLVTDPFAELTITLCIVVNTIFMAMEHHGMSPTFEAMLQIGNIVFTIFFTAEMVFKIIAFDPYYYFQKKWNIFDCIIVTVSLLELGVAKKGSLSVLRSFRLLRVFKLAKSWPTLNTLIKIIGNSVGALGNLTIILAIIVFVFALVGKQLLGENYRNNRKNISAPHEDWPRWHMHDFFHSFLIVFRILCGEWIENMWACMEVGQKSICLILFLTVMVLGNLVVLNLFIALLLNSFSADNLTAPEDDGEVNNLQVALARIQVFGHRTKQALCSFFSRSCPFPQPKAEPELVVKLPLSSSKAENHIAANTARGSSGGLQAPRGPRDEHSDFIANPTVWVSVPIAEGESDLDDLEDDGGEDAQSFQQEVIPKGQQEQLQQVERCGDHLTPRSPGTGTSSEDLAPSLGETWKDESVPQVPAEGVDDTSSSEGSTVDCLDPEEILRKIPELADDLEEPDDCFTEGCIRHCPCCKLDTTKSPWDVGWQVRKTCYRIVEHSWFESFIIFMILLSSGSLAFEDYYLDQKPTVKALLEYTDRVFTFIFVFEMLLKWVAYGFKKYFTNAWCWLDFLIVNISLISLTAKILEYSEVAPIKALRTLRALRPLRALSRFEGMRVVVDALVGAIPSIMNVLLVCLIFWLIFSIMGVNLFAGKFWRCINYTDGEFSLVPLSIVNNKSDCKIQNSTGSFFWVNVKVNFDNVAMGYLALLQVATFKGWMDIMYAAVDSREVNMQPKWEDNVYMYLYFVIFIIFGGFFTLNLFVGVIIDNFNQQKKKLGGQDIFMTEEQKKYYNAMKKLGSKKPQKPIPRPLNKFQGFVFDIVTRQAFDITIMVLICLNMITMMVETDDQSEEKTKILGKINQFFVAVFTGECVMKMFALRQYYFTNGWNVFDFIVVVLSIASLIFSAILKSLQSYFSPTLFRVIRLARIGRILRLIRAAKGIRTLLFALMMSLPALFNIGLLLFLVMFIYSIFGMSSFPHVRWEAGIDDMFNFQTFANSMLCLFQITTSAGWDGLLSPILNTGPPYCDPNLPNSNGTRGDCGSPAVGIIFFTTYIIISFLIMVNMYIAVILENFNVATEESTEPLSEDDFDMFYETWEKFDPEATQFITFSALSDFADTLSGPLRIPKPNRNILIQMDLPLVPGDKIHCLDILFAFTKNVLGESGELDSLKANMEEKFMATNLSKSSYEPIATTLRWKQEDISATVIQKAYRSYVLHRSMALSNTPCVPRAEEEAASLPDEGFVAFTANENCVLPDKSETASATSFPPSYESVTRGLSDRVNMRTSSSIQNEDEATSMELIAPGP

Consider `O=C(Nc1ccc[n+]([O-])c1)c1cc(Cl)c(Cl)cc1Oc1ccc(OC(F)(F)F)cc1` [Embodiment A11], for which, in data set [1] (setting [2]), the AUC(0-inf) came to 1.46 µg·h/mL, the clearance was 11.4 mL/min/kg, the half-life was 42 min and the Vd came out at 0.699 L/kg. In data set [1] (setting [3]), this compound had an AUC(0-inf) of 10.6 µg·h/mL, a maximum concentration (Cmax) of 1330 ng/mL and a half-life of 151 min. Further, the bioavailability in data set [1] (po) worked out at 72.6%. At NaV1.8, this compound came in with an IC50 of 6.2 nM. Turning to `O=C(Nc1cc[n+](O)nc1)c1c(Oc2ccc(OC(F)(F)F)cc2)ccc(C(F)(F)F)c1F` [Embodiment A46], in data set [1] (setting [2]), the AUC(0-inf) was determined as 15.6 µg·h/mL, the clearance stood at 1.08 mL/min/kg, the half-life is 1200 min and the Vd was determined as 1.85 L/kg. In data set [1] (setting [3]), this compound had an area under the curve AUC(0-inf) of 2930 µg·h/mL, a Cmax of 2060 ng/mL and a half-life of 54900 min. The compound also displayed a bioavailability in data set [1] (po) of 46.8%. Moreover, it took 3.1 nM to reach half-maximal inhibition at NaV1.8 (IC50).

In the case of `O=C(Nc1ccc[n+]([O-])c1)c1cc(Cl)c(OC(F)(F)F)cc1Oc1ccc(OC(F)(F)F)cc1` [Embodiment A91], the “Blocking rate (%) @100 nM” value at NaV1.8 is 92.81%. Turning to `Cc1cc(Oc2ccc(OC(F)(F)F)cc2)c(C(=O)Nc2ccc[n+]([O-])c2)cc1Cl` [Embodiment A92], the “Blocking rate (%) @100 nM” value at NaV1.8 stood at 85.44%. The same measure, in the same setting: to `O=C(Nc1ccc[n+]([O-])c1)c1cc(Cl)c(C2CC2)cc1Oc1ccc(OC(F)(F)F)cc1` [Embodiment A95] belongs 93.84%; to `O=C(Nc1ccc[n+]([O-])c1)c1cc(Cl)c(Br)cc1Oc1ccc(OC(F)(F)F)cc1` [Embodiment A96], 88.78%; to `O=C(Nc1ccc[n+]([O-])c1)c1cc(C(F)(F)F)c(C2CC2)cc1Oc1ccc(OC(F)(F)F)cc1` [Embodiment A97], 86.65%. Still for that read-out and setting: to `O=C(Nc1ccc[n+]([O-])c1)c1c(Oc2ccc(OC(F)(F)F)cc2)ccc(CC2CC2)c1F` [Embodiment A98] belongs 95.70%; to `O=C(Nc1cc[n+]([O-])cc1)c1c(Oc2ccc(OC(F)(F)F)cc2)cc(Cl)c(Cl)c1F` [Embodiment A100], 97.60%. As for `O=C(Nc1ccc[n+]([O-])c1)c1c(Oc2ccc(OCC(F)(F)F)cc2)cc(Cl)c(Cl)c1F` [Embodiment A101], at NaV1.8, the “Blocking rate (%) @100 nM” value is listed as 98.47%. `O=C(Nc1cc[n+]([O-])cc1)c1c(Oc2ccc(OC(F)(F)F)cc2)cnc(C(F)(F)F)c1Cl` [Embodiment A102]: at NaV1.8, the “Blocking rate (%) @100 nM” value was determined as 82.71%. For the compound `Cc1cc(F)ccc1Oc1cc(C(F)(F)F)c(Cl)c(F)c1C(=O)Nc1ccc[n+]([O-])c1` [Embodiment A104], the “Blocking rate (%) @100 nM” value at NaV1.8 stood at 97.93%. Same read-out and setting: for `COc1c(Cl)c(C(F)(F)F)cc(Oc2ccc(F)cc2C)c1C(=O)Nc1ccc[n+]([O-])c1` [Embodiment A105] the value was 98.42%. In turn, `O=C(Nc1ccc[n+]([O-])c1)c1cc(Cl)c(C(F)(F)F)cc1Oc1ccc(F)cc1C1CC1` [Embodiment A106] yielded an IC50 against NaV1.8 of 3 nM. For the compound `Cc1cc(F)ccc1Oc1cc(C(F)(F)F)c(Br)cc1C(=O)Nc1ccc[n+]([O-])c1` [Embodiment A107], the “Blocking rate (%) @100 nM” value at NaV1.8 stood at 95.60%. Same read-out and setting: for `O=C(Nc1ccc[n+]([O-])c1)c1cc(Cl)c(C(F)(F)F)cc1Oc1ccc(F)cc1OC1CC1` [Embodiment A108] the value was 96.92%; for `Cc1cc(F)ccc1Oc1cc(C(F)(F)F)c(Br)c(F)c1C(=O)Nc1ccc[n+]([O-])c1` [Embodiment A110], 98.75%; for `O=C(Nc1ccc[n+]([O-])c1)c1c(Oc2ccc(F)cc2C2CC2)cc(C(F)(F)F)c(Cl)c1F` [Embodiment A111], 99.42%.
